In the supplement of paper PMC10307832:

These cell lines were tested with Cc1ccc(C(=O)Nc2ccc(CN3CCN(C)CC3)c(C(F)(F)F)c2)cc1C#Cc1cnc2cccnn12 [Ponatinib] + Cc1cc(Nc2cc(N3CCN(C)CC3)nc(Sc3ccc(NC(=O)C4CC4)cc3)n2)n[nH]1 [Tozasertib] (partner 0.1 µM) (assay: relative viability (nuclei count vs DMSO), 5 days (fraction); higher = more cells survive). Details: first compound 0.002 µM.
Summary of the method: (§1)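 Relative viability equals treated-well nuclei counts divided by vehicle-well nuclei counts. Counts came from 4× images of lung cancer cell lines grown in 1536-well plates for 5 days after pin-tool dosing on the day after seeding. Dosing used one drug alone or a fixed anchor-drug dose plus five library-drug doses (not always all listed) in √10 steps, and values are medians of duplicate plates.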

Cell Line | relative viability
NCI-H23 | 0.351
NCI-H650 | 0.685
CAL-12T | 0.317
NCI-H1651 | 0.685
EPLC-272H | 0.246
NCI-H1355 | 0.566
NCI-H322M | 0.429
NCI-H1437 | 0.363
NCI-H1755 | 0.607
HCC-15 | 0.401
NCI-H1944 | 0.24
PC-3 [JPC-3] | 0.851
EKVX | 0.386
LC-2-ad | 0.458
NCI-H2170 | 0.755
NCI-H1975 | 0.677
ABC-1 | 0.213
RERF-LC-KJ | 0.476

Same assay, conditions: first compound 0.006325 µM

Cell Line | relative viability
LU99A | 0.293
BEN | 0.52
HARA | 0.111
HCC-78 | 0.511
NCI-H441 | 0.529
LCLC-97TM1 | 0.298
A-427 | 0.227
NCI-H460 | 0.526
NCI-H727 | 0.593
NCI-H1734 | 0.293
NCI-H2405 | 0.809
NCI-H1793 | 0.388
201T | 1.01
NCI-H1915 | 0.487
HCC-827 | 0.42
LXF-289 | 0.262
NCI-H23 | 0.419

Cell Line | relative viability
NCI-H650 | 0.707
CAL-12T | 0.259
NCI-H1651 | 0.662
EPLC-272H | 0.394
NCI-H1355 | 0.542
NCI-H322M | 0.412
NCI-H1437 | 0.419
NCI-H1755 | 0.59
HCC-15 | 0.479
NCI-H1944 | 0.246
PC-3 [JPC-3] | 0.822
EKVX | 0.45
LC-2-ad | 0.455
NCI-H2170 | 0.674
NCI-H1975 | 0.774
ABC-1 | 0.147
RERF-LC-KJ | 0.474

Same assay, conditions: first compound 0.06325 µM

Cell Line | relative viability
LU99A | 0.251
BEN | 0.486
HARA | 0.0906
HCC-78 | 0.404
NCI-H441 | 0.588
LCLC-97TM1 | 0.17
A-427 | 0.198
NCI-H460 | 0.19
NCI-H727 | 0.531
NCI-H1734 | 0.217
NCI-H2405 | 0.711
NCI-H1793 | 0.29
201T | 0.966
NCI-H1915 | 0.313
HCC-827 | 0.427
LXF-289 | 0.21
NCI-H23 | 0.25

Cell Line | relative viability
NCI-H650 | 0.712
CAL-12T | 0.268
NCI-H1651 | 0.563
EPLC-272H | 0.365
NCI-H1355 | 0.582
NCI-H322M | 0.41
NCI-H1437 | 0.411
NCI-H1755 | 0.54
HCC-15 | 0.432
NCI-H1944 | 0.247
PC-3 [JPC-3] | 0.951
EKVX | 0.375
LC-2-ad | 0.431
NCI-H2170 | 0.651
NCI-H1975 | 0.275
ABC-1 | 0.141
RERF-LC-KJ | 0.405

Same assay, conditions: first compound 0.2 µM

Cell Line | relative viability
LU99A | 0.263
BEN | 0.533
HARA | 0.0762
HCC-78 | 0.33
NCI-H441 | 0.488
LCLC-97TM1 | 0.218
A-427 | 0.167
NCI-H460 | 0.0908
NCI-H727 | 0.669
NCI-H1734 | 0.26
NCI-H2405 | 0.681
NCI-H1793 | 0.204
201T | 0.926
NCI-H1915 | 0.366
HCC-827 | 0.414
LXF-289 | 0.148
NCI-H23 | 0.197

Cell Line | relative viability
NCI-H650 | 0.618
CAL-12T | 0.265
NCI-H1651 | 0.531
EPLC-272H | 0.307
NCI-H1355 | 0.455
NCI-H322M | 0.423
NCI-H1437 | 0.393
NCI-H1755 | 0.547
HCC-15 | 0.328
NCI-H1944 | 0.255
PC-3 [JPC-3] | 0.824
EKVX | 0.314
LC-2-ad | 0.397
NCI-H2170 | 0.665
NCI-H1975 | 0.196
ABC-1 | 0.204
RERF-LC-KJ | 0.281

What follows are cell lines tested with Cc1ccc(Nc2nccc(N(C)c3ccc4c(C)n(C)nc4c3)n2)cc1S(N)(=O)=O [Pazopanib] + Cc1nc(NC(=O)N2CCC[C@H]2C(N)=O)sc1-c1ccnc(C(C)(C)C(F)(F)F)c1 [Alpelisib] (partner 2 µM) in the same assay as above. Details: first compound 0.01 µM.
Summary of the method: as §1

Cell Line | relative viability
LU99A | 0.428
BEN | 0.845
HARA | 0.82
HCC-78 | 0.284
NCI-H441 | 0.71
A-427 | 1.07
NCI-H460 | 0.432
NCI-H727 | 0.634
NCI-H1734 | 0.632
NCI-H2405 | 0.743
201T | 0.959
NCI-H1915 | 1.06
HCC-827 | 0.949
LXF-289 | 1.06
NCI-H23 | 0.676
NCI-H650 | 1.06

Cell Line | relative viability
CAL-12T | 1.21
NCI-H1651 | 0.956
EPLC-272H | 0.734
NCI-H322M | 0.846
NCI-H1437 | 0.938
NCI-H1755 | 0.814
HCC-15 | 0.788
NCI-H1944 | 0.751
PC-3 [JPC-3] | 0.965
EKVX | 0.726
LC-2-ad | 0.844
NCI-H2170 | 0.73
NCI-H1975 | 0.684
ABC-1 | 0.859
RERF-LC-KJ | 0.808

Same assay, conditions: first compound 0.03162 µM

Cell Line | relative viability
LU99A | 0.505
BEN | 1.04
HARA | 0.779
HCC-78 | 0.406
NCI-H441 | 0.73
LCLC-97TM1 | 0.236
A-427 | 1.13
NCI-H460 | 0.529
NCI-H727 | 0.693
NCI-H1734 | 0.702
NCI-H2405 | 0.787
NCI-H1793 | 0.687
201T | 1.06
NCI-H1915 | 1.11
HCC-827 | 0.943
LXF-289 | 1.04
NCI-H23 | 0.73

Cell Line | relative viability
NCI-H650 | 1.35
CAL-12T | 1.32
NCI-H1651 | 1.08
EPLC-272H | 0.966
NCI-H1355 | 0.765
NCI-H322M | 1.03
NCI-H1437 | 1.02
NCI-H1755 | 0.906
HCC-15 | 0.931
NCI-H1944 | 0.838
PC-3 [JPC-3] | 1.04
EKVX | 0.887
LC-2-ad | 0.884
NCI-H2170 | 0.794
NCI-H1975 | 0.648
ABC-1 | 1.1
RERF-LC-KJ | 0.928

Same assay, conditions: first compound 0.1 µM

Cell Line | relative viability
LU99A | 0.416
BEN | 1.1
HARA | 0.846
HCC-78 | 0.3
NCI-H441 | 0.987
LCLC-97TM1 | 0.272
A-427 | 1.09
NCI-H460 | 0.52
NCI-H727 | 0.637
NCI-H1734 | 0.743
NCI-H2405 | 0.861
NCI-H1793 | 0.62
201T | 1.02
NCI-H1915 | 0.971
HCC-827 | 1.02
LXF-289 | 1.02
NCI-H23 | 0.738

Cell Line | relative viability
NCI-H650 | 1.19
CAL-12T | 1.11
NCI-H1651 | 0.913
EPLC-272H | 1
NCI-H1355 | 0.99
NCI-H322M | 0.779
NCI-H1437 | 0.964
NCI-H1755 | 0.917
HCC-15 | 0.885
NCI-H1944 | 0.839
PC-3 [JPC-3] | 1.19
EKVX | 0.923
LC-2-ad | 0.916
NCI-H2170 | 0.877
NCI-H1975 | 0.608
ABC-1 | 0.984
RERF-LC-KJ | 0.906

Same assay, conditions: first compound 0.3162 µM

Cell Line | relative viability
LU99A | 0.517
BEN | 1.02
HARA | 0.818
HCC-78 | 0.35
NCI-H441 | 0.655
LCLC-97TM1 | 0.234
A-427 | 1.06
NCI-H460 | 0.531
NCI-H727 | 0.664
NCI-H1734 | 0.65
NCI-H2405 | 1.09
NCI-H1793 | 0.914
201T | 0.998
NCI-H1915 | 1.04
HCC-827 | 0.944
LXF-289 | 1.03
NCI-H23 | 0.693

Cell Line | relative viability
NCI-H650 | 1.11
CAL-12T | 1.35
NCI-H1651 | 0.88
EPLC-272H | 0.991
NCI-H1355 | 0.871
NCI-H322M | 0.632
NCI-H1437 | 0.938
NCI-H1755 | 0.93
HCC-15 | 0.909
NCI-H1944 | 0.863
PC-3 [JPC-3] | 0.991
EKVX | 0.896
LC-2-ad | 0.866
NCI-H2170 | 0.646
NCI-H1975 | 0.74
ABC-1 | 1.1
RERF-LC-KJ | 0.806

Same assay, conditions: first compound 1 µM

Cell Line | relative viability
LU99A | 0.544
BEN | 0.988
HARA | 0.982
HCC-78 | 0.388
NCI-H441 | 0.728
LCLC-97TM1 | 0.243
A-427 | 1.03
NCI-H460 | 0.6
NCI-H727 | 0.717
NCI-H1734 | 0.769
NCI-H2405 | 0.838
NCI-H1793 | 0.732
201T | 1.05
NCI-H1915 | 0.952
HCC-827 | 1.01
LXF-289 | 1.09
NCI-H23 | 0.919

Cell Line | relative viability
NCI-H650 | 1.08
CAL-12T | 1.27
NCI-H1651 | 1.13
EPLC-272H | 0.804
NCI-H1355 | 0.849
NCI-H322M | 0.926
NCI-H1437 | 1.05
NCI-H1755 | 0.914
HCC-15 | 0.986
NCI-H1944 | 0.982
PC-3 [JPC-3] | 0.956
EKVX | 1.03
LC-2-ad | 0.891
NCI-H2170 | 0.787
NCI-H1975 | 0.662
ABC-1 | 1.03
RERF-LC-KJ | 0.935
